# Experimental data from patent publication US9187484B2 (Southern Research Institute, priority 2012, dated 2015).
# Biological target: T1, LRRK2 (G2019S) (Homo sapiens, UniProt Q5S007, G2019S)
# T1 construct: Recombinant GST-LRRK2 (delta970), purified from baculovirus infected insect cells (SF9); GST (N); host or cells: baculovirus infected insect cells (SF9)
# Assay: LRRK2 inhibition, radiometric kinase assay with recombinant GST-LRRK2 (delta970) and peptide substrate
# Format: biochemical
# Conditions: GST-LRRK2 (delta970) G2019S 30 nM, ATP ~52 μM (Km), 30 min at 30° C.
# Procedure: Compounds were assessed for inhibition of LRRK2 inhibition using the following procedure.
# Recombinant GST-LRRK2 (delta970), purified from baculovirus infected insect cells (SF9), at least 90% pure and either wild-type sequence or bearing the pathogenic G2019S mutation, was combined into a kinase buffer at 30 nM concentration. Kinase buffer consists of 50 mM Tris HCl pH 7.4, 1 mM EDTA, and 50 μM peptide substrate (amino acid sequence […]). Experimental compounds or control (no compound) were added at desired concentrations in DMSO and water, where final concentration of DMSO in kinase reactions was 0.1% for all drug concentrations. Activation buffer that consists of a final concentration in the reactions of 10 mM MgCl2 and ATP (˜92 μM for WT-LRRK2 reactions and ˜52 μM for G2019S-LRRK2, which represent respective Km ATP concentrations) were added to each reaction, in addition to 0.5 μCi of gamma-32-P-dATP per reaction. Reactions were incubated at 1400 RPM at 30° C. for 30 min. and then spotted in triplicate directly onto a slot-blot apparatus fitted with phospho-cellulose paper and allowed to dry. Each slot was then washed with 10 mM phosphoric acid buffer until beta-radiation could not be detected in eluted wash buffer, usually ˜1 mL per slot. Paper within each slot were excised and radiation measured by liquid scintillation.
# T1 sequence (Q5S007 970-2527 G2019S limits assumed): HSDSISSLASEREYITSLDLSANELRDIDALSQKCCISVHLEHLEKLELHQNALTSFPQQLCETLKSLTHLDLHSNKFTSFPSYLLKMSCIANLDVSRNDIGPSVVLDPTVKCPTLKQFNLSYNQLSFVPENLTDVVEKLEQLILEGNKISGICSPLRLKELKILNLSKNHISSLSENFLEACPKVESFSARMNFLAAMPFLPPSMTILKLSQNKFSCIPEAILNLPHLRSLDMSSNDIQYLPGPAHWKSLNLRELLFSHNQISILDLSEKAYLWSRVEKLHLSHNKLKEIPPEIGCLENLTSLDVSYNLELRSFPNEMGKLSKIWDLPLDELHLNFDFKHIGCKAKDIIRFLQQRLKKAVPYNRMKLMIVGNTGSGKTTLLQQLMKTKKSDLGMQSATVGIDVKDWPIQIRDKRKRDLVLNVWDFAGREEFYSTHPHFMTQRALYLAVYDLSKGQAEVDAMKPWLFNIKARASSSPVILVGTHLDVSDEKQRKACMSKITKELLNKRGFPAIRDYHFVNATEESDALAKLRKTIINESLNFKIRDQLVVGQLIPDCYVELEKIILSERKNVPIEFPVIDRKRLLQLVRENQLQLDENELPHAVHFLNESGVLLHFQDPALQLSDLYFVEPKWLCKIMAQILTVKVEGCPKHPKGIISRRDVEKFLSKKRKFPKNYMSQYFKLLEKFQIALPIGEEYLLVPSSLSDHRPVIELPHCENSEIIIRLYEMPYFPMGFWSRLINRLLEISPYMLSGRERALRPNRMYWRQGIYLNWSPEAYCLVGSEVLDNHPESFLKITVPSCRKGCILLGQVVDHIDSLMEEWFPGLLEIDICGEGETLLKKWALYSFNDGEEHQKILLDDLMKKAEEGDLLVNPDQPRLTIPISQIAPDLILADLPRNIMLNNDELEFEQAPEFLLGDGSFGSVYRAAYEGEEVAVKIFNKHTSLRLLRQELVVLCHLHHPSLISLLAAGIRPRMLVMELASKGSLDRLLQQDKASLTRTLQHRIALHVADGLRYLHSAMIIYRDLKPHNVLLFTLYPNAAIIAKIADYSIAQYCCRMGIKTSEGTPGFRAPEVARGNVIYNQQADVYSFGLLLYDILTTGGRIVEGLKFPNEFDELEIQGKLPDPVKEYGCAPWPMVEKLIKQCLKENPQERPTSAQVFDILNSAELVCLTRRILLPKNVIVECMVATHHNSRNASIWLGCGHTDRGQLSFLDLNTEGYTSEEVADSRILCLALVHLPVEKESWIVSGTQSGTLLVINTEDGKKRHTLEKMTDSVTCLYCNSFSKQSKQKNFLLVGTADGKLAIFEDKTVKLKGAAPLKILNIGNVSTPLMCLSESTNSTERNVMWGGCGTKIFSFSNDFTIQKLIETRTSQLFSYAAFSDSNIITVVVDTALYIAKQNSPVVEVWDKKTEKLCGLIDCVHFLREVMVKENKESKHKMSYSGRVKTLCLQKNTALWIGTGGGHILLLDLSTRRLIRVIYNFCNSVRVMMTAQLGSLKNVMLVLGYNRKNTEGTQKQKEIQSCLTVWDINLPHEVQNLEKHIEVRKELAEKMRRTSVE
row,Structure (SMILES),IC50 [µM]
1,"O=C(O)CSc1ccc2nnc(-c3cc4ccccc4s3)n2n1 [Example 30, 2-((3-(benzo[b]thiophen-2-yl)-[1,2,4]triazolo[4,3-b]pyridazin-6-yl)thio)acetic acid]",≥ 5
2,"CCC(Oc1ccc2nnc(-c3cccs3)n2n1)C(=O)N1CCCCC1 (centres unmarked) [Example 85, 1-(piperidin-1-yl)-2-((3-(thiophen-2-yl)-[1,2,4]triazolo[4,3-b]pyridazin-6-yl)oxy)butan-1-one]",≥ 5
3,"CCC(Sc1ccc2nnc(-c3cccs3)n2n1)C(=O)Nc1ccccc1 (centres unmarked) [Example 86, N-phenyl-2-((3-(thiophen-2-yl)-[1,2,4]triazolo[4,3-b]pyridazin-6-yl)thio)butanamide]",≥ 5
4,"CCC(Sc1ccc2nnc(-c3ccccc3OC)n2n1)C(N)=O (centres unmarked) [Example 69, 2-((3-(2-methoxyphenyl)-[1,2,4]triazolo[4,3-b]pyridazin-6-yl)thio)butanamide]",≥ 5
5,"CCC(Sc1ccc2nnc(-c3ccsc3)n2n1)C(=O)N1CCCCC1 (centres unmarked) [Example 64, 1-(piperidin-1-yl)-2-((3-(thiophen-3-yl)-[1,2,4]triazolo[4,3-b]pyridazin-6-yl)thio)butan-1-one]",0.1 to 1
6,"CCC(Sc1ccc2nnc(-c3ccc(OC)cc3)n2n1)C(N)=O (centres unmarked) [Example 66, 2-((3-(4-methoxyphenyl)-[1,2,4]triazolo[4,3-b]pyridazin-6-yl)thio)butanamide]",0.1 to 1
7,"NC(=O)CSc1ccc2nnc(-c3cc4ccccc4s3)n2n1 [Example 29, 2-((3-(benzo[b]thiophen-2-yl)-[1,2,4]triazolo[4,3-b]pyridazin-6-yl)thio)acetamide]",≥ 5
8,"CC(Sc1ccc2nnc(-c3cscn3)n2n1)C(=O)N1CCCCC1 (centres unmarked) [Example 110, 1-(piperidin-1-yl)-2-((3-(thiazol-4-yl)-[1,2,4]triazolo[4,3-b]pyridazin-6-yl)thio)propan-1-one]",0.1 to 1
9,"CCOC(=O)CSc1ccc2nnc(-c3ccncc3)n2n1 [Example 2, ethyl 2-((3-(pyridin-4-yl)-[1,2,4]triazolo[4,3-b]pyridazin-6-yl)thio)acetate]",≥ 5
10,"CCC(Sc1ccc2nnc(-c3ccc(F)c(F)c3)n2n1)C(=O)O (centres unmarked) [Example 54, 2-((3-(3,4-difluorophenyl)-[1,2,4]triazolo[4,3-b]pyridazin-6-yl)thio)butanoic acid]",0.1 to 1
11,"Cc1scc(-c2nnc3ccc(SCC(=O)O)nn23)c1-c1ccccc1 [Example 39, 2-((3-(5-methyl-4-phenylthiophen-3-yl)-[1,2,4]triazolo[4,3-b]pyridazin-6-yl)thio)acetic acid]",≥ 5
12,"CCC(Sc1ccc2nnc(-c3ccc(F)cc3)n2n1)C(=O)Nc1nccs1 (centres unmarked) [Example 7, 2-((3-(4-fluorophenyl)-[1,2,4]triazolo[4,3-b]pyridazin-6-yl)thio)-N-(thiazol-2-yl)butanamide]",≥ 5
13,"CCC(Sc1ccc2nnc(-c3cccc(F)c3)n2n1)C(=O)N1CCCCC1 (centres unmarked) [Example 97, 2-((3-(3-fluorophenyl)-[1,2,4]triazolo[4,3-b]pyridazin-6-yl)thio)-1-(piperidin-1-yl)butan-1-one]",0.1 to 1
14,"O=C(O)CSc1ccc2nnc(-c3ccco3)n2n1 [Example 28, 2-((3-(furan-2-yl)-[1,2,4]triazolo[4,3-b]pyridazin-6-yl)thio)acetic acid]",≥ 5
15,"NC(=O)CSc1ccc2nnc(-c3ccncc3)n2n1 [Example 4, 2-((3-(pyridin-4-yl)-[1,2,4]triazolo[4,3-b]pyridazin-6-yl)thio)acetamide]",≥ 5
16,"NC(=O)CSc1ccc2nnc(-c3ccccn3)n2n1 [Example 16, 2-((3-(pyridin-2-yl)-[1,2,4]triazolo[4,3-b]pyridazin-6-yl)thio)acetamide]",≥ 5
17,"CCOC(=O)C(CC)Sc1ccc2nnc(-c3ccccc3F)n2n1 (centres unmarked) [Example 74, ethyl 2-((3-(2-fluorophenyl)-[1,2,4]triazolo[4,3-b]pyridazin-6-yl)thio)butanoate]",1 to 5
18,"CC(Sc1ccc2nnc(-c3ccnn3C)n2n1)C(=O)N1CCCCC1 (centres unmarked) [Example 112, 2-((3-(1-methyl-1H-pyrazol-5-yl)-[1,2,4]triazolo[4,3-b]pyridazin-6-yl)thio)-1-(piperidin-1-yl)propan-1-one]",≥ 5
19,"CCC(Nc1ccc2nnc(-c3cccs3)n2n1)C(=O)N1CCCCC1 (centres unmarked) [Example 100, 1-(piperidin-1-yl)-2-((3-(thiophen-2-yl)-[1,2,4]triazolo[4,3-b]pyridazin-6-yl)amino)butan-1-one]",≥ 5
20,"CC(Sc1ccc2nnc(-c3cccs3)n2n1)C(=O)N1CCCC1 (centres unmarked) [Example 105, 1-(pyrrolidin-1-yl)-2-((3-(thiophen-2-yl)-[1,2,4]triazolo[4,3-b]pyridazin-6-yl)thio)propan-1-one]",< 0.1
21,"CC(Sc1ccc2nnc(-c3ccn(C)n3)n2n1)C(=O)N1CCCCC1 (centres unmarked) [Example 113, 2-((3-(1-methyl-1H-pyrazol-3-yl)-[1,2,4]triazolo[4,3-b]pyridazin-6-yl)thio)-1-(piperidin-1-yl)propan-1-one]",0.1 to 1
22,"CCC(Sc1ccc2nnc(-c3ccc(C(F)(F)F)cc3)n2n1)C(=O)O (centres unmarked) [Example 53, 2-((3-(4-(trifluoromethyl)phenyl)-[1,2,4]triazolo[4,3-b]pyridazin-6-yl)thio)butanoic acid]",≥ 5
23,"CCC(Sc1ccc2nnc(-c3nccs3)n2n1)C(=O)O (centres unmarked) [Example 33, 2-((3-(thiazol-2-yl)-[1,2,4]triazolo[4,3-b]pyridazin-6-yl)thio)butanoic acid]",0.1 to 1

# Results, then the compound that gave them:
row,IC50 [µM],Structure (SMILES)
1,0.1 to 1,"O=C(CSc1ccc2nnc(-c3cccs3)n2n1)Nc1nccs1 [Example 23, N-(thiazol-2-yl)-2-((3-(thiophen-2-yl)-[1,2,4]triazolo[4,3-b]pyridazin-6-yl)thio)acetamide]"
2,1 to 5,"CCC(Sc1ccc2nnc(-c3ccc(F)c(F)c3)n2n1)C(N)=O (centres unmarked) [Example 79, 2-((3-(3,4-difluorophenyl)-[1,2,4]triazolo[4,3-b]pyridazin-6-yl)thio)butanamide]"
3,1 to 5,"CCOC(=O)C(CC)Sc1ccc2nnc(-c3cccc(F)c3)n2n1 (centres unmarked) [Example 75, ethyl 2-((3-(3-fluorophenyl)-[1,2,4]triazolo[4,3-b]pyridazin-6-yl)thio)butanoate]"
4,≥ 5,"CCC(Sc1ccc2nnc(-c3cccs3)n2n1)C(=O)N1CCN(C)CC1 (centres unmarked) [Example 58, 1-(4-methylpiperazin-1-yl)-2-((3-(thiophen-2-yl)-[1,2,4]triazolo[4,3-b]pyridazin-6-yl)thio)butan-1-one]"
5,≥ 5,"CCC(Sc1ccc2nnc(-c3cccs3)n2n1)C(=O)N1CCCCCC1 (centres unmarked) [Example 50, 1-(azepan-1-yl)-2-((3-(thiophen-2-yl)-[1,2,4]triazolo[4,3-b]pyridazin-6-yl)thio)butan-1-one]"
6,≥ 5,"O=C(CSc1ccc2nnc(-c3ccc(F)cc3)n2n1)Nc1nccs1 [Example 43, 2-((3-(4-fluorophenyl)-[1,2,4]triazolo[4,3-b]pyridazin-6-yl)thio)-N-(thiazol-2-yl)acetamide]"
7,0.1 to 1,"CCC(Sc1ccc2nnc(-c3nccs3)n2n1)C(=O)N1CCCCC1 (centres unmarked) [Example 60, 1-(piperidin-1-yl)-2-((3-(thiazol-2-yl)-[1,2,4]triazolo[4,3-b]pyridazin-6-yl)thio)butan-1-one]"
8,0.1 to 1,"CCC(Sc1ccc2nnc(-c3cccs3)n2n1)C(=O)O (centres unmarked) [Example 18, 2-((3-(thiophen-2-yl)-[1,2,4]triazolo[4,3-b]pyridazin-6-yl)thio)butanoic acid]"
9,≥ 5,"NC(=O)CSc1ccc2nnc(-c3cc4ccccc4o3)n2n1 [Example 32, 2-((3-(benzofuran-2-yl)-[1,2,4]triazolo[4,3-b]pyridazin-6-yl)thio)acetamide]"
10,≥ 5,"NC(=O)CSc1ccc2nnc(C3CCCCC3)n2n1 [Example 10, 2-((3-cyclohexyl-[1,2,4]triazolo[4,3-b]pyridazin-6-yl)thio)acetamide]"
11,≥ 5,"O=C(O)CSc1ccc2nnc(-c3cc4ccccc4o3)n2n1 [Example 31, 2-((3-(benzofuran-2-yl)-[1,2,4]triazolo[4,3-b]pyridazin-6-yl)thio)acetic acid]"
12,1 to 5,"CCCCC(Sc1ccc2nnc(-c3cccs3)n2n1)C(=O)O (centres unmarked) [Example 41, 2-((3-(thiophen-2-yl)-[1,2,4]triazolo[4,3-b]pyridazin-6-yl)thio)hexanoic acid]"
13,0.1 to 1,"CC(Sc1ccc2nnc(-c3nccs3)n2n1)C(=O)N1CCCCC1 (centres unmarked) [Example 125, 1-(piperidin-1-yl)-2-((3-(thiazol-2-yl)-[1,2,4]triazolo[4,3-b]pyridazin-6-yl)thio)propan-1-one]"
14,1 to 5,"CC(C)(Sc1ccc2nnc(-c3cccs3)n2n1)C(=O)N1CCCC1 [Example 107, 2-methyl-1-(pyrrolidin-1-yl)-2-((3-(thiophen-2-yl)-[1,2,4]triazolo[4,3-b]pyridazin-6-yl)thio)propan-1-one]"
15,0.1 to 1,"CCC(Sc1ccc2nnc(-c3cccs3)n2n1)C(=O)N1CCCCC1C (centres unmarked) [Example 104, 1-(2-methylpiperidin-1-yl)-2-((3-(thiophen-2-yl)-[1,2,4]triazolo[4,3-b]pyridazin-6-yl)thio)butan-1-one]"
